Where “and” joins values, the source holds several entries; their conditions need not be identical. Equal entries are not always repeated.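 These data come from cells grown in 96-well plates and exposed to compound for 48 hours at five concentrations. GI50 marks 50% less growth. At the TGI there is no net growth.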
Key:
Experiment in all cases: DTP human tumour cell line panel, 48 h
OVCAR-3 ovarian = test system: OVCAR-3 ovarian
HL-60(TB) leukemia = test system: HL-60(TB) leukemia
T-47D breast = test system: T-47D breast
MDA-MB-435 = test system: MDA-MB-435
NCI-H460 lung = test system: NCI-H460 lung
A549 NSCLC = test system: A549 NSCLC
SK-OV-3 ovarian = test system: SK-OV-3 ovarian
OVCAR-5 ovarian = test system: OVCAR-5 ovarian
A498 renal = test system: A498 renal
UACC-62 melanoma = test system: UACC-62 melanoma

In the case of `S=C(Nc1ccc(-c2nc3ccccc3s2)cc1)Nc1ccccn1`, the GI50 (OVCAR-3 ovarian) is reported as 18700 nM, the TGI (OVCAR-3 ovarian) is reported as greater than 53.9 µM and the GI50 (HL-60(TB) leukemia) is reported as 30700 nM. It also gave a TGI (HL-60(TB) leukemia) greater than 100 µM, a GI50 (T-47D breast) of 23600 nM and a TGI (T-47D breast) greater than 95.5 µM. The GI50 (MDA-MB-435) was 28400 nM, the TGI (MDA-MB-435) was 97.2 µM and the GI50 (NCI-H460 lung) was 41200 nM. For the same compound, the TGI (NCI-H460 lung) was greater than 100 µM, the GI50 (A549 NSCLC) was 27 µM and the TGI (A549 NSCLC) was greater than 100 µM. The GI50 (SK-OV-3 ovarian) was 59.7 µM, the TGI (SK-OV-3 ovarian) was greater than 100 µM and the GI50 (OVCAR-5 ovarian) was greater than 52.8 µM. It also gave a TGI (OVCAR-5 ovarian) greater than 81.4 µM, a GI50 (A498 renal) of 19.8 µM and a TGI (A498 renal) of 44.7 µM. The GI50 (UACC-62 melanoma) was 21400 nM and the TGI (UACC-62 melanoma) was 57.3 µM.
`COC(=O)c1c2c(c[n+]([O-])c1C)C(=O)C(NCc1ccccc1)=CC2=O` was tested, and the GI50 (OVCAR-3 ovarian) was 256 nM, the TGI (OVCAR-3 ovarian) was 0.796 µM and the GI50 (HL-60(TB) leukemia) was 256 nM. For the same compound, the TGI (HL-60(TB) leukemia) was 0.667 µM, the GI50 (T-47D breast) was 327 nM and the TGI (T-47D breast) was 1.53 µM. It also gave a GI50 (MDA-MB-435) of 193 nM, a TGI (MDA-MB-435) of 0.376 µM and a GI50 (NCI-H460 lung) of 425 nM. The TGI (NCI-H460 lung) was 1.65 µM, the GI50 (A549 NSCLC) was 1.12 µM and the TGI (A549 NSCLC) was 3.61 µM. The GI50 (SK-OV-3 ovarian) was 1.98 µM, the TGI (SK-OV-3 ovarian) was 4.79 µM and the GI50 (OVCAR-5 ovarian) was 1.2 µM. It also gave a TGI (OVCAR-5 ovarian) of 2.57 µM, a GI50 (A498 renal) of 1.32 µM and a TGI (A498 renal) of 2.65 µM. The GI50 (UACC-62 melanoma) was 334 nM and the TGI (UACC-62 melanoma) was 1.06 µM.
`CCc1ccc(/C(C#N)=C/C=C/c2ccccc2)cc1` showed a GI50 (OVCAR-3 ovarian) of 2460 nM, a TGI (OVCAR-3 ovarian) of 13.6 µM and a GI50 (HL-60(TB) leukemia) of 2540 nM. For the same compound, the TGI (HL-60(TB) leukemia) was greater than 62.9 µM, the GI50 (T-47D breast) was 2400 nM and the TGI (T-47D breast) was greater than 100 µM. For the same compound, the GI50 (MDA-MB-435) was 299 nM, the TGI (MDA-MB-435) was 1.16 µM and the GI50 (NCI-H460 lung) was 3350 nM. For the same compound, the TGI (NCI-H460 lung) was greater than 42.7 µM, the GI50 (A549 NSCLC) was 2.62 µM and the TGI (A549 NSCLC) was greater than 100 µM. It also gave a GI50 (SK-OV-3 ovarian) of 3.08 µM, a TGI (SK-OV-3 ovarian) greater than 29.3 µM and a GI50 (OVCAR-5 ovarian) of 7.06 µM. The TGI (OVCAR-5 ovarian) was greater than 100 µM, the GI50 (A498 renal) was 2.19 µM and the TGI (A498 renal) was 39.3 µM. The GI50 (UACC-62 melanoma) was 3480 nM and the TGI (UACC-62 melanoma) was greater than 100 µM.
`COc1ccc(C2=C(Br)C(=O)OC2)cc1Cl` showed a GI50 (OVCAR-3 ovarian) of 45700 nM, a TGI (OVCAR-3 ovarian) greater than 89.8 µM and a GI50 (HL-60(TB) leukemia) of 42800 nM. It also gave a TGI (HL-60(TB) leukemia) greater than 100 µM, a GI50 (T-47D breast) of 1930 nM and a TGI (T-47D breast) of 35.5 µM. For the same compound, the GI50 (MDA-MB-435) was 27400 nM, the TGI (MDA-MB-435) was greater than 100 µM and the GI50 (NCI-H460 lung) was 33200 nM. For the same compound, the TGI (NCI-H460 lung) was greater than 100 µM, the GI50 (A549 NSCLC) was 18.5 µM and the TGI (A549 NSCLC) was 53.6 µM. The TGI (SK-OV-3 ovarian) was greater than 66.9 µM, the GI50 (OVCAR-5 ovarian) was 51.2 µM and the TGI (OVCAR-5 ovarian) was greater than 100 µM. For the same compound, the GI50 (A498 renal) was 27.9 µM, the TGI (A498 renal) was greater than 80.7 µM and the GI50 (UACC-62 melanoma) was 20900 nM. The TGI (UACC-62 melanoma) was greater than 64.4 µM.
With `COc1cc2c3c(n(CCCN=[N+]=[N-])c(=O)c2cc1OC)-c1ccc(N)cc1C3=O` the GI50 (OVCAR-3 ovarian) was 249 nM, the TGI (OVCAR-3 ovarian) was 0.923 µM and the GI50 (HL-60(TB) leukemia) was 102 nM. It also gave a TGI (HL-60(TB) leukemia) of 1.02 µM, a GI50 (T-47D breast) of 98.8 nM and a TGI (T-47D breast) of 0.76 µM. It also gave a GI50 (MDA-MB-435) of 479 nM, a TGI (MDA-MB-435) of 1.65 µM and a GI50 (NCI-H460 lung) of 26.5 nM. The TGI (NCI-H460 lung) was 0.139 µM, the GI50 (A549 NSCLC) was 0.374 µM and the TGI (A549 NSCLC) was 2.34 µM. It also gave a GI50 (SK-OV-3 ovarian) of 0.277 µM, a TGI (SK-OV-3 ovarian) of 0.716 µM and a GI50 (OVCAR-5 ovarian) of 0.633 µM. The TGI (OVCAR-5 ovarian) was 1.33 µM, the GI50 (A498 renal) was 0.0759 µM and the TGI (A498 renal) was 0.484 µM. The GI50 (UACC-62 melanoma) was 82 nM and the TGI (UACC-62 melanoma) was 0.451 µM.
`CCN1CCN(CCNc2nccc(-c3c(-c4cccc(O)c4)nc4sccn34)n2)S1(=O)=O` was tested, and the GI50 (OVCAR-3 ovarian) was 20100 nM and 21400 nM, the TGI (OVCAR-3 ovarian) was 32.5 µM and > 100 µM and the GI50 (HL-60(TB) leukemia) was 11800 nM. The TGI (HL-60(TB) leukemia) was 32.5 µM, the GI50 (T-47D breast) was 22100 nM and 11000 nM and the TGI (T-47D breast) was 32.5 µM and 53 µM. The GI50 (MDA-MB-435) was 313 nM and 376 nM, the TGI (MDA-MB-435) was 14.5 µM and 5.79 µM and the GI50 (NCI-H460 lung) was 11800 nM and 5860 nM. For the same compound, the TGI (NCI-H460 lung) was 32.5 µM and 78.3 µM, the GI50 (A549 NSCLC) was 15.4 µM and 9.27 µM and the TGI (A549 NSCLC) was 32.5 µM and > 100 µM. For the same compound, the GI50 (SK-OV-3 ovarian) was 7.93 µM and 3.95 µM, the TGI (SK-OV-3 ovarian) was 32.5 µM and 22.8 µM and the GI50 (OVCAR-5 ovarian) was 21.7 µM and 65 µM. The TGI (OVCAR-5 ovarian) was 32.5 µM and > 100 µM, the GI50 (A498 renal) was 16.6 µM and 3.97 µM and the TGI (A498 renal) was 32.5 µM and 25.6 µM. For the same compound, the GI50 (UACC-62 melanoma) was 105 nM and 76.6 nM and the TGI (UACC-62 melanoma) was 6.11 µM and 4.62 µM.
Compound `Clc1ccc(N/N=C/c2ccccn2)nc1` has a GI50 (OVCAR-3 ovarian) of 295 nM, a TGI (OVCAR-3 ovarian) greater than 100 µM and a GI50 (HL-60(TB) leukemia) of 318 nM. The TGI (HL-60(TB) leukemia) was 1.31 µM, the GI50 (T-47D breast) was 349 nM and the TGI (T-47D breast) was greater than 63.5 µM. The GI50 (MDA-MB-435) was 560 nM, the TGI (MDA-MB-435) was greater than 100 µM and the GI50 (NCI-H460 lung) was 379 nM. It also gave a TGI (NCI-H460 lung) greater than 42.7 µM, a GI50 (A549 NSCLC) of 0.518 µM and a TGI (A549 NSCLC) greater than 100 µM. For the same compound, the GI50 (SK-OV-3 ovarian) was 0.508 µM, the TGI (SK-OV-3 ovarian) was greater than 100 µM and the GI50 (OVCAR-5 ovarian) was 0.433 µM. It also gave a TGI (OVCAR-5 ovarian) greater than 94.3 µM, a GI50 (A498 renal) of 0.439 µM and a TGI (A498 renal) of 5.9 µM. It also gave a GI50 (UACC-62 melanoma) of 301 nM and a TGI (UACC-62 melanoma) of 1.08 µM.
For `COc1cccc(C2=NN(C(C)=O)C(c3cc(OC)c(OC)c(OC)c3)C2)c1` (centres undefined), the GI50 (OVCAR-3 ovarian) was 1090 nM, the TGI (OVCAR-3 ovarian) was 3.8 µM and the GI50 (HL-60(TB) leukemia) was 1550 nM. For the same compound, the TGI (HL-60(TB) leukemia) was 6.51 µM, the GI50 (T-47D breast) was 4490 nM and the TGI (T-47D breast) was greater than 100 µM. For the same compound, the GI50 (MDA-MB-435) was 224 nM, the TGI (MDA-MB-435) was 0.782 µM and the GI50 (NCI-H460 lung) was 2140 nM. It also gave a TGI (NCI-H460 lung) of 11.2 µM, a GI50 (A549 NSCLC) of 6.15 µM and a TGI (A549 NSCLC) greater than 100 µM. The GI50 (SK-OV-3 ovarian) was 3.04 µM, the TGI (SK-OV-3 ovarian) was greater than 47.7 µM and the GI50 (OVCAR-5 ovarian) was 8.09 µM. For the same compound, the TGI (OVCAR-5 ovarian) was greater than 100 µM, the GI50 (A498 renal) was 6.44 µM and the TGI (A498 renal) was greater than 30 µM. It also gave a GI50 (UACC-62 melanoma) of 3850 nM and a TGI (UACC-62 melanoma) greater than 100 µM.
`CC(C)[C@@H]1NC(=O)[C@]2(C)CSC(=N2)c2csc(n2)CNC(=O)C[C@@H](/C=C/CCS)OC1=O` gave a GI50 (OVCAR-3 ovarian) of 359 nM, a TGI (OVCAR-3 ovarian) of 4.12 µM and a GI50 (HL-60(TB) leukemia) of 361 nM. The TGI (HL-60(TB) leukemia) was greater than 100 µM, the GI50 (T-47D breast) was 491 nM and the TGI (T-47D breast) was 7.5 µM. For the same compound, the GI50 (MDA-MB-435) was 61.2 nM, the TGI (MDA-MB-435) was 4.17 µM and the GI50 (NCI-H460 lung) was 33.2 nM. The TGI (NCI-H460 lung) was greater than 100 µM, the GI50 (A549 NSCLC) was 0.0383 µM and the TGI (A549 NSCLC) was 20.9 µM. It also gave a GI50 (SK-OV-3 ovarian) of 0.0204 µM, a TGI (SK-OV-3 ovarian) of 0.228 µM and a GI50 (OVCAR-5 ovarian) of 0.0829 µM. The TGI (OVCAR-5 ovarian) was greater than 100 µM, the GI50 (A498 renal) was 0.0156 µM and the TGI (A498 renal) was 0.114 µM. For the same compound, the GI50 (UACC-62 melanoma) was 47.7 nM and the TGI (UACC-62 melanoma) was 0.28 µM.
